Measurements as given in PMC10364322, “Evaluation of chronic drug-induced electrophysiological and cytotoxic effects using human-induced pluripotent stem cell-derived cardiomyocytes (hiPSC-CMs)” (Frontiers in Pharmacology, 2023).
Like-named read-outs stand apart in the source and are kept apart here.

Tested on: hiPSC-CMs (iCell-Cardiomyocytes^2)
Outline: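 Monolayers of hiPSC-CMs on fibronectin-coated MEA plates, 50 K/well, kept at 37°C, 5% CO2; compounds added in 0.1% final DMSO after 5-min baseline. Field potential and impedance parameters expressed as mean ± SD percent change from baseline; arrhythmic events noted; cytotoxicity fluorescence normalized to DMSO, Kruskal-Wallis.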

Cc1cn(-c2cc(NC(=O)c3ccc(C)c(Nc4nccc(-c5cccnc5)n4)c3)cc(C(F)(F)F)c2)cn1 [Nilotinib]
BR (beat rate) % change from baseline (0.01 µM, 2h): 1±2%
Beating below threshold, number of observations/total well numbers (0.01 µM, 2h): 0/5
Cessation of beating, number of observations/total well numbers (0.01 µM, 2h): 0/5
EAD, number of observations/total well numbers (0.01 µM, 2h): 0/5
FPD (field-potential duration), % change from baseline (0.01 µM, 2h): 3.9±3.8%
FPDc (field-potential duration corrected by beat-rate), % change from baseline (0.01 µM, 2h): 4.1±4%
Flat T-wave-like, number of observations/total well numbers (0.01 µM, 2h): 0/5
BR (beat rate) % change from baseline (0.01 µM, 24h): -1±3%
Beating below threshold, number of observations/total well numbers (0.01 µM, 24h): 0/5
Cessation of beating, number of observations/total well numbers (0.01 µM, 24h): 0/5
EAD, number of observations/total well numbers (0.01 µM, 24h): 0/5
FPD (field-potential duration), % change from baseline (0.01 µM, 24h): 6.4±4.8%
FPDc (field-potential duration corrected by beat-rate), % change from baseline (0.01 µM, 24h): 6.1±4.9%
Flat T-wave-like, number of observations/total well numbers (0.01 µM, 24h): 0/5
BR (beat rate) % change from baseline (0.01 µM, 48h): -3±2%
Beating below threshold, number of observations/total well numbers (0.01 µM, 48h): 0/5
Cessation of beating, number of observations/total well numbers (0.01 µM, 48h): 0/5
EAD, number of observations/total well numbers (0.01 µM, 48h): 0/5
FPD (field-potential duration), % change from baseline (0.01 µM, 48h): 12.9±12.2%
FPDc (field-potential duration corrected by beat-rate), % change from baseline (0.01 µM, 48h): 11.9±11.5%
Flat T-wave-like, number of observations/total well numbers (0.01 µM, 48h): 0/5
BR (beat rate) % change from baseline (0.01 µM, 72h): -8±2%
Beating below threshold, number of observations/total well numbers (0.01 µM, 72h): 0/5
Cessation of beating, number of observations/total well numbers (0.01 µM, 72h): 0/5
EAD, number of observations/total well numbers (0.01 µM, 72h): 0/5
FPD (field-potential duration), % change from baseline (0.01 µM, 72h): 10.1±2.4%
FPDc (field-potential duration corrected by beat-rate), % change from baseline (0.01 µM, 72h): 7.1±2.3%
Flat T-wave-like, number of observations/total well numbers (0.01 µM, 72h): 0/5
BR (beat rate) % change from baseline (0.01 µM, 96h): -14±3%
Beating below threshold, number of observations/total well numbers (0.01 µM, 96h): 0/5
Cessation of beating, number of observations/total well numbers (0.01 µM, 96h): 0/5
EAD, number of observations/total well numbers (0.01 µM, 96h): 0/5
FPD (field-potential duration), % change from baseline (0.01 µM, 96h): 13.9±2.5%
FPDc (field-potential duration corrected by beat-rate), % change from baseline (0.01 µM, 96h): 8.7±2.6%
Flat T-wave-like, number of observations/total well numbers (0.01 µM, 96h): 0/5
BR (beat rate) % change from baseline (0.1 µM, 2h): -1±1%
Beating below threshold, number of observations/total well numbers (0.1 µM, 2h): 0/5
Cessation of beating, number of observations/total well numbers (0.1 µM, 2h): 0/5
EAD, number of observations/total well numbers (0.1 µM, 2h): 0/5
FPD (field-potential duration), % change from baseline (0.1 µM, 2h): 8.9±9.8%
FPDc (field-potential duration corrected by beat-rate), % change from baseline (0.1 µM, 2h): 8.6±10.1%
Flat T-wave-like, number of observations/total well numbers (0.1 µM, 2h): 0/5
BR (beat rate) % change from baseline (0.1 µM, 24h): -8±3%
Beating below threshold, number of observations/total well numbers (0.1 µM, 24h): 0/5
Cessation of beating, number of observations/total well numbers (0.1 µM, 24h): 0/5
EAD, number of observations/total well numbers (0.1 µM, 24h): 0/5
FPD (field-potential duration), % change from baseline (0.1 µM, 24h): 19.8±3.9 %
FPDc (field-potential duration corrected by beat-rate), % change from baseline (0.1 µM, 24h): 16.6±4.1 %
Flat T-wave-like, number of observations/total well numbers (0.1 µM, 24h): 0/5
BR (beat rate) % change from baseline (0.1 µM, 48h): -8±4%
Beating below threshold, number of observations/total well numbers (0.1 µM, 48h): 0/5
Cessation of beating, number of observations/total well numbers (0.1 µM, 48h): 0/5
EAD, number of observations/total well numbers (0.1 µM, 48h): 0/5
FPD (field-potential duration), % change from baseline (0.1 µM, 48h): 15.4±2.6%
FPDc (field-potential duration corrected by beat-rate), % change from baseline (0.1 µM, 48h): 12.7±3%
Flat T-wave-like, number of observations/total well numbers (0.1 µM, 48h): 0/5
BR (beat rate) % change from baseline (0.1 µM, 72h): -11±4%
Beating below threshold, number of observations/total well numbers (0.1 µM, 72h): 0/5
Cessation of beating, number of observations/total well numbers (0.1 µM, 72h): 0/5
EAD, number of observations/total well numbers (0.1 µM, 72h): 0/5
FPD (field-potential duration), % change from baseline (0.1 µM, 72h): 17.3±1.9%
FPDc (field-potential duration corrected by beat-rate), % change from baseline (0.1 µM, 72h): 12.5±1.7%
Flat T-wave-like, number of observations/total well numbers (0.1 µM, 72h): 0/5
BR (beat rate) % change from baseline (0.1 µM, 96h): -18±4%
Beating below threshold, number of observations/total well numbers (0.1 µM, 96h): 0/5
Cessation of beating, number of observations/total well numbers (0.1 µM, 96h): 0/5
EAD, number of observations/total well numbers (0.1 µM, 96h): 0/5
FPD (field-potential duration), % change from baseline (0.1 µM, 96h): 19.6±3.2%
FPDc (field-potential duration corrected by beat-rate), % change from baseline (0.1 µM, 96h): 11.8±4.2%
Flat T-wave-like, number of observations/total well numbers (0.1 µM, 96h): 0/5
BR (beat rate) % change from baseline (0.3 µM, 2h): -4±1%
Beating below threshold, number of observations/total well numbers (0.3 µM, 2h): 0/5
Cessation of beating, number of observations/total well numbers (0.3 µM, 2h): 0/5
EAD, number of observations/total well numbers (0.3 µM, 2h): 0/5
FPD (field-potential duration), % change from baseline (0.3 µM, 2h): 22.4±5.4 %
FPDc (field-potential duration corrected by beat-rate), % change from baseline (0.3 µM, 2h): 20.8±5.2 %
Flat T-wave-like, number of observations/total well numbers (0.3 µM, 2h): 0/5
BR (beat rate) % change from baseline (0.3 µM, 24h): -17±2 %
Beating below threshold, number of observations/total well numbers (0.3 µM, 24h): 0/5
Cessation of beating, number of observations/total well numbers (0.3 µM, 24h): 0/5
EAD, number of observations/total well numbers (0.3 µM, 24h): 0/5
FPD (field-potential duration), % change from baseline (0.3 µM, 24h): 61.6±9.1 %
FPDc (field-potential duration corrected by beat-rate), % change from baseline (0.3 µM, 24h): 52.4±8.3 %
Flat T-wave-like, number of observations/total well numbers (0.3 µM, 24h): 0/5
BR (beat rate) % change from baseline (0.3 µM, 48h): -13±1%
Beating below threshold, number of observations/total well numbers (0.3 µM, 48h): 0/5
Cessation of beating, number of observations/total well numbers (0.3 µM, 48h): 0/5
EAD, number of observations/total well numbers (0.3 µM, 48h): 0/5
FPD (field-potential duration), % change from baseline (0.3 µM, 48h): 46.7±15.8 %
FPDc (field-potential duration corrected by beat-rate), % change from baseline (0.3 µM, 48h): 39.9±14.5 %
Flat T-wave-like, number of observations/total well numbers (0.3 µM, 48h): 0/5
BR (beat rate) % change from baseline (0.3 µM, 72h): -19±3 %
Beating below threshold, number of observations/total well numbers (0.3 µM, 72h): 0/5
Cessation of beating, number of observations/total well numbers (0.3 µM, 72h): 0/5
EAD, number of observations/total well numbers (0.3 µM, 72h): 0/5
FPD (field-potential duration), % change from baseline (0.3 µM, 72h): 59.3±17.6 %
FPDc (field-potential duration corrected by beat-rate), % change from baseline (0.3 µM, 72h): 48.5±15 %
Flat T-wave-like, number of observations/total well numbers (0.3 µM, 72h): 0/5
BR (beat rate) % change from baseline (0.3 µM, 96h): -23±2%
Beating below threshold, number of observations/total well numbers (0.3 µM, 96h): 0/5
Cessation of beating, number of observations/total well numbers (0.3 µM, 96h): 0/5
EAD, number of observations/total well numbers (0.3 µM, 96h): 0/5
FPD (field-potential duration), % change from baseline (0.3 µM, 96h): 57±11 %
FPDc (field-potential duration corrected by beat-rate), % change from baseline (0.3 µM, 96h): 44.7±10.1 %
Flat T-wave-like, number of observations/total well numbers (0.3 µM, 96h): 1/5
wells displaying EAD-like events (1 µM): one of five wells
BR (beat rate) % change from baseline (1 µM, 2h): -15±5 %
Beating below threshold, number of observations/total well numbers (1 µM, 2h): 0/5
Cessation of beating, number of observations/total well numbers (1 µM, 2h): 0/5
EAD, number of observations/total well numbers (1 µM, 2h): 1/5
FPD (field-potential duration), % change from baseline (1 µM, 2h): 80.6±28.8 %
FPDc (field-potential duration corrected by beat-rate), % change from baseline (1 µM, 2h): 70.6±24.2 %
Flat T-wave-like, number of observations/total well numbers (1 µM, 2h): 0/5
BR (beat rate) % change from baseline (1 µM, 24h): -42±3 %
Beating below threshold, number of observations/total well numbers (1 µM, 24h): 0/5
Cessation of beating, number of observations/total well numbers (1 µM, 24h): 0/5
EAD, number of observations/total well numbers (1 µM, 24h): 1/5
FPD (field-potential duration), % change from baseline (1 µM, 24h): 264.1±51.3 %
FPDc (field-potential duration corrected by beat-rate), % change from baseline (1 µM, 24h): 200.7±36.5 %
Flat T-wave-like, number of observations/total well numbers (1 µM, 24h): 2/5
BR (beat rate) % change from baseline (1 µM, 48h): -37±3 %
Beating below threshold, number of observations/total well numbers (1 µM, 48h): 0/5
Cessation of beating, number of observations/total well numbers (1 µM, 48h): 0/5
EAD, number of observations/total well numbers (1 µM, 48h): 1/5
FPD (field-potential duration), % change from baseline (1 µM, 48h): 209.3±40.8 %
FPDc (field-potential duration corrected by beat-rate), % change from baseline (1 µM, 48h): 164.9±31.8 %
BR (beat rate) % change from baseline (1 µM, 72h): -44±3 %
Beating below threshold, number of observations/total well numbers (1 µM, 72h): 0/5
Cessation of beating, number of observations/total well numbers (1 µM, 72h): 0/5
EAD, number of observations/total well numbers (1 µM, 72h): 1/5
FPD (field-potential duration), % change from baseline (1 µM, 72h): 260.2±58.2 %
FPDc (field-potential duration corrected by beat-rate), % change from baseline (1 µM, 72h): 196.4±43 %
Flat T-wave-like, number of observations/total well numbers (1 µM, 72h): 1/5
BR (beat rate) % change from baseline (1 µM, 96h): -43±3 %
Beating below threshold, number of observations/total well numbers (1 µM, 96h): 0/5
Cessation of beating, number of observations/total well numbers (1 µM, 96h): 0/5
EAD, number of observations/total well numbers (1 µM, 96h): 1/5
FPD (field-potential duration), % change from baseline (1 µM, 96h): 208.7±49.5 %
FPDc (field-potential duration corrected by beat-rate), % change from baseline (1 µM, 96h): 156.3±38.4 %
Flat T-wave-like, number of observations/total well numbers (1 µM, 96h): 1/5
prolongation of FPD (1 and 0.3 µM, acute and chronic time points): significant dose-dependent prolongation of the FPD
cessation of beating (any concentration): no cessation of beating occurred in any concentration
